Data published in PMC8508980, “Design, Synthesis and Anticancer Profile of New 4-(1H-benzo[d]imidazol-1-yl)pyrimidin-2-amine-Linked Sulfonamide Derivatives with V600EBRAF Inhibitory Effect” (International Journal of Molecular Sciences, 2021).

What was measured:
Experiment in all cases: NCI 60 cell line screen
Format in all cases: cell-based
786-0 = settings: Homo sapiens; 786-0, Renal Cancer; read-out: Percent growth
Procedure: (§1) Anticancer profiling over a panel of 60 cancer cell lines was carried out at the National Cancer Institute (NCI), Bethesda, Maryland, USA, https://dtp.cancer.gov/discovery_development/nci-60/methodology.htm (Last visit 22 September 2021), using the standard procedure (detailed procedure is located in the Supplementary Information page 50 s).
(§2) NCI standard procedure for 60 cell lines assay
(§3) The human tumor cell lines of the cancer screening panel are grown in RPMI 1640 mediu m containing 5% fetal bovine serum and 2 mM L-glutamine. For a typical screening experiment, cells are inoculated into 96 well microtiter plates in 100 μL at plating densities ranging from 5,000 to 40,000 cells/well depending on the doubling time of individual cell lines. After cell inoculation, the microtiter plates are incubated at 37° C, 5 % CO2, 95 % air and 100 % relative humidity for 24 h prior to addition of experimental drugs.
(§4) After 24 h, two plates of each cell line are fixed in situ with TCA, to represent a measurement of the cell population for each cell line at the time of drug addition (Tz). Experimental drugs are solubilized in dimethyl sulfoxide at 400-fold the desired final maximum test concentration (10 µM) and stored frozen prior to use. At the time of drug addition, an aliquot of frozen concentrate is thawed and diluted to twice the desired final maximum test concentration with co mp lete medium containing 50 μg/ml gentamicin. Additional four, 10-fold or ½ log serial dilutions are made to provide a total of five drug concentrations plus control. Aliquots of 100 μl of these different drug dilutions are added to the appropriate microtiter wells already containing 100 μl of medium, resulting in the required final drug concentrations.
(§5) Following drug addition, the plates are incubated for an additional 48 h at 37°C, 5 % CO2, 95 % air, and 100 % relative humidity. For adherent cells, the assay is terminated by the addition of cold TCA. Cells are fixed in situ by the gentle addition of 50 μl of cold 50 % (w/v) TCA (final concentration, 10 % TCA) and incubated for 60 minutes at 4°C. The supernatant is discarded, and the plates are washed five times with tap water and air dried. Sulforhodamine B (SRB) solution (100 μl) at 0.4 % (w/v) in 1 % acetic acid is added to each well, and plates are incubated for 10 minutes at room temperature. After staining, unbound dye is removed by washing five times with 1 % acetic acid and the plates are air dried. Bound stain is subsequently solubilized with 10 mM trizma base, and the absorbance is read on an automated plate reader at a wavelength of 515 nm. For suspension cells, the methodology is the same except that the assay is terminated by fixing settled cells at the bottom of the wells by g ently adding 50 μl of 80 % TCA (final concentration, 16 % TCA). Using the seven absorbance measurements [time zero, (Tz), control growth, (C), and test growth in the presence of drug at the five concentration levels (Ti)], the percentage growth is calculated at each of the drug concentrations levels. Percentage growth inhibition is calculated as:
(§6) [(Ti-Tz)/(C-Tz)] x 100 for concentrations for which Ti>/=Tz
(§7) [(Ti-Tz)/Tz] x 100 for concentrations for which Ti<Tz.
(§8) Three dose response parameters are calculated for each experimental agent. Growth inhibition of […]
(§9) resulting in a 50% reduction in the net protein increase (as measured by SRB staining) in control cells during the drug incubation. The drug concentration resulting in total growth inhibition […]
(§10) (TGI) is calculated from Ti = Tz.

A498 = settings: Homo sapiens; A498, Renal Cancer; read-out: Percent growth
Procedure: as §1, §2, §3, §4, §5, §6, §7, §8, §9, §10

A549/ATCC = settings: Homo sapiens, Non-Small Cell Lung Cancer, read-out: Percent growth
Procedure: as §1, §2, §3, §4, §5, §6, §7, §8, §9, §10

ACHN = settings: Homo sapiens, Renal Cancer, read-out: Percent growth
Procedure: as §1, §2, §3, §4, §5, §6, §7, §8, §9, §10

CCRF-CEM = settings: Homo sapiens, Leukemia, read-out: Percent growth
Procedure: as §1, §2, §3, §4, §5, §6, §7, §8, §9, §10

COLO 205 = settings: Homo sapiens; COLO 205, Colon Cancer; read-out: Percent growth
Procedure: as §1, §2, §3, §4, §5, §6, §7, §8, §9, §10

DU-145 = settings: Homo sapiens; DU-145, Prostate Cancer; read-out: Percent growth
Procedure: as §1, §2, §3, §4, §5, §6, §7, §8, §9, §10

HCC-2998 = settings: Homo sapiens; HCC-2998, Colon Cancer; read-out: Percent growth
Procedure: as §1, §2, §3, §4, §5, §6, §7, §8, §9, §10

HL-60(TB) = settings: Homo sapiens, Leukemia, read-out: Percent growth
Procedure: as §1, §2, §3, §4, §5, §6, §7, §8, §9, §10

HOP-62 = settings: Homo sapiens; HOP-62, Non-Small Cell Lung Cancer; read-out: Percent growth
Procedure: as §1, §2, §3, §4, §5, §6, §7, §8, §9, §10

HS 578T = settings: Homo sapiens, Breast Cancer, read-out: Percent growth
Procedure: as §1, §2, §3, §4, §5, §6, §7, §8, §9, §10

IGROV1 = settings: Homo sapiens, IGROV-1; IGROV1, Ovarian Cancer; read-out: Percent growth
Procedure: as §1, §2, §3, §4, §5, §6, §7, §8, §9, §10

LOX IMVI = settings: Homo sapiens, Melanoma, read-out: Percent growth
Procedure: as §1, §2, §3, §4, §5, §6, §7, §8, §9, §10

MALME-3M = settings: Homo sapiens, Melanoma, read-out: Percent growth
Procedure: as §1, §2, §3, §4, §5, §6, §7, §8, §9, §10

MCF7 = settings: Homo sapiens; MCF7, Breast Cancer; read-out: Percent growth
Procedure: as §1, §2, §3, §4, §5, §6, §7, §8, §9, §10

MDA-MB-231/ATCC = settings: Homo sapiens, Breast Cancer, read-out: Percent growth
Procedure: as §1, §2, §3, §4, §5, §6, §7, §8, §9, §10

OVCAR-3 = settings: Homo sapiens; OVCAR-3, Ovarian Cancer; read-out: Percent growth
Procedure: as §1, §2, §3, §4, §5, §6, §7, §8, §9, §10

SK-MEL-28 = settings: Homo sapiens; SK-MEL-28, Melanoma; read-out: Percent growth
Procedure: as §1, §2, §3, §4, §5, §6, §7, §8, §9, §10

SK-OV-3 = settings: Homo sapiens; SK-OV-3, Ovarian Cancer; read-out: Percent growth
Procedure: as §1, §2, §3, §4, §5, §6, §7, §8, §9, §10

SN12C = settings: Homo sapiens, Renal Cancer, read-out: Percent growth
Procedure: as §1, §2, §3, §4, §5, §6, §7, §8, §9, §10

SNB-19 = settings: Homo sapiens; SNB-19, CNS-Cancer; read-out: Percent growth
Procedure: as §1, §2, §3, §4, §5, §6, §7, §8, §9, §10

TK-10 = settings: Homo sapiens; TK-10, Renal Cancer; read-out: Percent growth
Procedure: as §1, §2, §3, §4, §5, §6, §7, §8, §9, §10

UACC-62 = settings: Homo sapiens; UACC-62, Melanoma; read-out: Percent growth
Procedure: as §1, §2, §3, §4, §5, §6, §7, §8, §9, §10

Row | Compound | activity at 10 µM (786-0) | activity at 10 µM (A498) | activity at 10 µM (A549/ATCC) | activity at 10 µM (ACHN) | activity at 10 µM (CCRF-CEM) | activity at 10 µM (COLO 205) | activity at 10 µM (DU-145) | activity at 10 µM (HCC-2998) | activity at 10 µM (HL-60(TB)) | activity at 10 µM (HOP-62) | activity at 10 µM (HS 578T) | activity at 10 µM (IGROV1) | activity at 10 µM (LOX IMVI) | activity at 10 µM (MALME-3M) | activity at 10 µM (MCF7) | activity at 10 µM (MDA-MB-231/ATCC) | activity at 10 µM (OVCAR-3) | activity at 10 µM (SK-MEL-28) | activity at 10 µM (SK-OV-3) | activity at 10 µM (SN12C) | further results
1 | O=S(=O)(NCCCNc1nccc(-n2cnc3ccccc32)n1)c1ccccc1 [12h, N-(3-((4-(1H-benzo [d]imidazol-1-yl)pyrimidin-2-yl)amino)propyl)benzenesulfonamide] | 98.8% | 78.4% | 97.6% | 95.7% | 88.1% | 102% | 99.2% | 107% | 104% | 96.9% | 93.7% | 107% | 91.7% | 108% | 87.7% | 92.4% | 106% | 105% | 105% | 94.3% | activity at 10 µM (SNB-19): 103%; activity at 10 µM (TK-10): 103%; activity at 10 µM (UACC-62): 85%
2 | O=S(=O)(NCCNc1nccc(-n2cnc3ccccc32)n1)c1ccc(Cl)cc1 [12c, N-(2-((4-(1H-benzo [d]imidazol-1-yl)pyrimidin-2-yl)amino)ethyl)-4-chlorobenzenesulfonamide] | 99% | 84.8% | 103% | 96.4% | 103% | 104% | 104% | 101% | 113% | 95.4% | 88.1% | 98.2% | 93.5% | 99.5% | 87.9% | 90.5% | 106% | 101% | 112% | 96.6% | activity at 10 µM (SNB-19): 97.7%; activity at 10 µM (TK-10): 101%; activity at 10 µM (UACC-62): 86.4%
3 | O=S(=O)(NCCCNc1nccc(-n2cnc3ccccc32)n1)c1ccc(Br)cc1 [12k, N-(3-((4-(1H-benzo [d]imidazol-1-yl)pyrimidin-2-yl)amino)propyl)-4-bromo benzenesulfonamide] | 91.7% | 77.2% | 95% | 90.4% | 83% | 108% | 96.5% | 112% | 99.8% | 107% | 90% | 101% | 94.6% | 104% | 86.7% | 83.6% | 104% | 102% | 109% | 89.2% | activity at 10 µM (SNB-19): 98.6%; activity at 10 µM (TK-10): 97.8%; activity at 10 µM (UACC-62): 77.3%
4 | O=S(=O)(NCCNc1nccc(-n2cnc3ccccc32)n1)c1ccc(C(F)(F)F)cc1 [12e, N-(2-((4-(1H-benzo [d]imidazol-1-yl)pyrimidin-2-yl)amino)ethyl)-4-(trifluoromethyl)benzenesulfonamide] | 69.7% | 56.6% | 55.4% | 60.8% | 57.6% | 64.9% | 71.8% | 80.5% | 73.8% | 66.1% | 42.9% | 66.4% | 57.4% | 71.4% | 34.9% | 64% | 72.9% | 77.2% | 62.2% | 72.5% | activity at 10 µM (SNB-19): 69.8%; activity at 10 µM (TK-10): 63.4%; activity at 10 µM (UACC-62): 42.4%
5 | COc1ccc(S(=O)(=O)NCCNc2nccc(-n3cnc4ccccc43)n2)cc1 [12f, N-(2-((4-(1H-benzo [d]imidazol-1-yl)pyrimidin-2-yl)amino)ethyl)-4-methoxy benzenesulfonamide] | 93% | 82.9% | 94.6% | 97.1% | 102% | 99.8% | 99.9% | 99.7% | 106% | 94.6% | 84.1% | 89% | 91.7% | 91.7% | 86.2% | 92.1% | 103% | 97.9% | 97.5% | 88.5% | activity at 10 µM (SNB-19): 95.3%; activity at 10 µM (TK-10): 92.5%; activity at 10 µM (UACC-62): 76.6%
6 | O=S(=O)(NCCCNc1nccc(-n2cnc3ccccc32)n1)c1ccc(C(F)(F)F)cc1 [12l, N-(3-((4-(1H-benzo [d]imidazol-1-yl)pyrimidin-2-yl)amino)propyl)-4-(trifluoromethyl) benzenesulfonamide] | 77.2% | 55.3% | 79% | 79% | 51.9% | 78.2% | 83.5% | 84.8% | 89% | 77.3% | 58.6% | 74.3% | 72.3% | 94% | 65.5% | 68.7% | 81.2% | 103% | 80.3% | 80.5% | activity at 10 µM (SNB-19): 83.4%; activity at 10 µM (TK-10): 81.5%; activity at 10 µM (UACC-62): 64.1%
